Experiments:
[1] = tested on: mice subjected to normobaric hypoxia; experiment: Effects on survival time of mice subjected to normobaric hypoxia; type: in vivo, mouse (ddY strain; male); settings: 50 mg/kg oral, 2 h before; 96% nitrogen/4% oxygen; protected = alive 10 or more minutes
Method: Mice (ddY strain; male; body weight 20-22 g) were used as test animals. Each group consisted of 10 or more mice. A test compound (50 mg/kg) was orally administered to each mouse.
Then each animal was put into a glass cylinder (capacity: 700 ml) and a mixture of nitrogen (96%) and oxygen (4%) was passed through the cylinder at a velocity of 5 1 /min and expelled through a hole in the side wall. The time from the start of the gas mixture supply to the cessation of respiratory motion was measured, and animals which remained alive for 10 or more minutes were evaluated as "protected". Among 50 untreated animals, no animal remained alive. In use, the test compound was suspended in an aqueous solution of carboxymethylcellulose sodium (0.3%).

[2] = Test for acute toxicity (LD50, oral, 7 days); settings: mouse, in vivo, mice, deaths within 7 days, 5 mice per group
Method: Mice (ddY strain; male; body weight 21-23 g) were used as test animals. Each group consisted of 5 mice. The test compound was orally administered to each mouse. During the test period of 7 days after the administration, the number of deaths in each group was counted to calculate the LD50. All animals were bred in a breeding room, maintained at a temperature of 23°±2° C. and a humidity of 55-60%. These animals were given a solid feed "F-2" (commercial product of Funabashi Nojo) and city water ad libitum.

[3] = cited from literature / background; cited from earlier work
[4] = Acute toxicity (general statements, comparison with nizofenone); settings: in vivo, po; per os; species and method not stated at this place
[5] = tested on: cerebral ischaemia or cerebral hypoxia; settings: cited from literature; cited from earlier work
[6] = tested on: mice subjected to anaemic hypoxia; experiment: Effects on survival time of mice subjected to anaemic hypoxia (NaNO2); type: in vivo, mouse (ddY strain; male); settings: 30 mg/kg oral, 2 h before; NaNO2 225 mg/kg s.c.; mean ± S.E.; *P < 0.05, **P < 0.001 vs control
Method: (Hypoxia induced by NaNO2 administration to convert haemoglobin to methemoglobin)
Mice (ddY strain; male; body weight 20-22 g) were used as test animals. Each group consisted of 10 or more mice. A test compound (30 mg/kg) was orally administered to each mouse. Two hours after the administration, NaNO2 (225 mg/kg) was subcutaneously administered to each mouse. The time from the NaNO2 administration to death was measured. Survival time of the compound-administered group and that of the control group were compared by t-test.

[7] = tested on: decapitated heads of mice; experiment: Effect on time of gasping persistence by decapitated heads of mice; type: in vivo, mouse (ddY strain; male); settings: 30 mg/kg oral, 2 h before decapitation; mean ± S.E.; **P < 0.001 vs control
Method: Mice (ddY strain; male; body weight 20-22 g) were used as test animals. Each group consisted of 10 or more mice. A test compound (30 mg/kg) was orally administered to each mouse. Two hours after the administration, each animal was decapitated, and the time from the decapitation to the cessation of gasping was measured. Time of gasping persistence of the treated group and that of the control group were compared by t-test.

[8] = tested on: mice subjected to hypobaric hypoxia; experiment: Effects on survival time of mice subjected to hypobaric hypoxia; type: in vivo, mouse (ddY strain; male); settings: 30 mg/kg oral, 2 h before; 150 mmHg; mean ± S.E.; *P < 0.05, **P < 0.001 vs control
Method: Mice (ddY strain; male; body weight 20-22 g) were used as test animals. Each group consisted of 10 or more mice. A test compound (30 mg/kg) was orally administered to each mouse. Two hours after the administration, each animal was put into a desiccator (capacity: 9 l), and the inside pressure of the desiccator was reduced to 150 mmHg over a period of 52-55 seconds. The time from the start of the pressure reduction to the cessation of respiratory motion was measured. Survival time of the compound-administered group and that of the control group were compared by t-test.

SMILES: O=C(C=Cc1ccc(C(F)(F)F)cc1)N1CCOCC1 [Compound 7, 4-(4-Trifluoromethylcinnamoyl) morpholine]
- A/B (number of animals surviving / number of animals tested) [1]: 4/10
- LD50 at 168 h [2]: 300 to 450 mg/kg

SMILES: CCN(CC)Cc1nccn1-c1ccc([N+](=O)[O-])cc1C(=O)c1ccccc1Cl.O=C(O)/C=C/C(=O)O [nizofenone, 1-[2-(2-chlorobenzoyl)-4-nitrophenyl]-2-(diethylaminomethyl)imidazole fumarate]
- anesthetic or respiration-suppressing action, side effects (literature) [3]: does not exhibit an anesthetic or respiration-suppressing action
- LD50 [4]: 450 to 675 mg/kg
- cerebral protective effect (literature) [5]: has a cerebral protective effect against cerebral ischaemia or cerebral hypoxia, similar to that of barbiturates

SMILES: CC1CCCCN1C(=O)C=Cc1ccc(Cl)cc1 (stereo not drawn) [Compound 3, 2-Methyl-1-(4-chlorocinnamoyl) piperidine]
- A/B (number of animals surviving / number of animals tested) [1]: 9/10
- Survival Time [6]: 47.7 ± 5.5 min
- LD50 at 168 h [2]: > 1010 mg/kg
- Persistence Time (gasping) [7]: 30.2 ± 1.1 s
- Survival Time [8]: 172.4 ± 11.3 s

SMILES: CC1COCCN1C(=O)C=Cc1ccc(C(F)(F)F)cc1 (stereo not drawn) [Compound 2, 3-methyl-4-(4-trifluoromethylcinnamoyl) morpholine]
- A/B (number of animals surviving / number of animals tested) [1]: 8/10
- LD50 at 168 h [2]: 675 to 1010 mg/kg

SMILES: O=C(C=Cc1ccc(C(F)(F)F)cc1)N1CCS(=O)(=O)CC1 [Compound 13, 4-(4-trifluoromethylcinnamoyl) thiomorpholine-1,1-dioxide]
- A/B (number of animals surviving / number of animals tested) [1]: 6/10

SMILES: CC1CCCCN1C(=O)C=Cc1ccc(F)cc1 (stereo not drawn) [Compound 4, 2-Methyl-1-(4-fluorocinnamoyl) piperidine]
- A/B (number of animals surviving / number of animals tested) [1]: 7/20
- Survival Time [6]: 58.4 ± 5.5 min
- LD50 at 168 h [2]: > 1010 mg/kg
- Persistence Time (gasping) [7]: 23.5 ± 0.8 s
- Survival Time [8]: 126.3 ± 6.9 s

SMILES: O=C(C=Cc1ccc(C(F)(F)F)cc1)N1CCC(O)CC1 [Compound 10, 4-Hydroxy-1-(4-trifluoromethylcinnamoyl) piperidine]
- A/B (number of animals surviving / number of animals tested) [1]: 2/10

SMILES: O=C(C=Cc1ccc(Cl)c(Cl)c1)N1CCOCC1 [Compound 15, 4(3,4-dichlorocinnamoyl) morpholine]
- A/B (number of animals surviving / number of animals tested) [1]: 5/10
- LD50 at 168 h [2]: 450 to 675 mg/kg

SMILES: CCCC(C)C1(CC)C(=O)NC(=O)NC1=O (stereo not drawn) [pentobarbital]
- cerebral protective effect (literature) [5]: have a cerebral protective activity

SMILES: O=C(C=Cc1ccc(Cl)cc1)N1CCOCC1 [Compound 16, 4(4-chlorocinnamoyl) morpholine]
- A/B (number of animals surviving / number of animals tested) [1]: 5/10
- LD50 at 168 h [2]: 675 to 1010 mg/kg

SMILES: O=C(C=Cc1ccc(C(F)(F)F)cc1)N1CC[S+]([O-])CC1 [Compound 12, 4-(4-trifluoromethylcinnamoyl) thiomorpholine-1-oxide]
- A/B (number of animals surviving / number of animals tested) [1]: 8/10

SMILES: CCC1(c2ccccc2)C(=O)NC(=O)N(C)C1=O (stereo not drawn) [mephobarbital]
- cerebral protective effect (literature) [5]: have a cerebral protective activity

SMILES: O=C(C=Cc1ccc(C(F)(F)F)cc1)N1CCCCC1CO (stereo not drawn) [Compound 9, 2-Hydroxymethyl-1-(4-trifluoromethylcinnamoyl) piperidine]
- A/B (number of animals surviving / number of animals tested) [1]: 2/10

SMILES: O=C(C=Cc1ccc(Cl)cc1)N1CCCCC1 [Compound 14, 1(4-chlorocinnamoyl) piperidine]
- A/B (number of animals surviving / number of animals tested) [1]: 4/10
- LD50 at 168 h [2]: > 1010 mg/kg

SMILES: O=C(C=Cc1ccc(F)cc1)N1CCOCC1 [Compound 6, 4-(4-Fluorocinnamoyl) morpholine]
- A/B (number of animals surviving / number of animals tested) [1]: 2/10
- LD50 at 168 h [2]: > 1010 mg/kg

SMILES: CC1CCCCN1C(=O)C=Cc1ccc(C(F)(F)F)cc1 (stereo not drawn) [Compound 1, 2-methyl-1-(4-trifluoromethylcinnamoyl) piperidine]
- A/B (number of animals surviving / number of animals tested) [1]: 10/10
- Survival Time [6]: 64.9 ± 5.5 min
- LD50 at 168 h [2]: > 1010 mg/kg
- Persistence Time (gasping) [7]: 39.1 ± 1.4 s
- Survival Time [8]: 582.8 ± 12.1 s

SMILES: CC1CCN(C(=O)C=Cc2ccc(C(F)(F)F)cc2)CC1 [Compound 8, 4-Methyl-1-(4-trifluoromethylcinnamoyl) piperidine]
- A/B (number of animals surviving / number of animals tested) [1]: 5/20
- LD50 at 168 h [2]: > 1010 mg/kg

SMILES: O=C(C=Cc1ccc(C(F)(F)F)cc1)N1CCSCC1 [Compound 11, 4-(4-Trifluoromethylcinnamoyl) thiomorpholine]
- A/B (number of animals surviving / number of animals tested) [1]: 7/10

SMILES: CC1CCCC(C)N1C(=O)C=Cc1ccc(C(F)(F)F)cc1 (stereo not drawn) [Compound 5, 2,6-Dimethyl-1-(4-trifluoromethylcinnamoyl) piperidine]
- A/B (number of animals surviving / number of animals tested) [1]: 15/20
- LD50 at 168 h [2]: > 1010 mg/kg

SMILES: CCCC(C)C1(CC)C(=O)NC(=S)NC1=O (stereo not drawn) [thiopental]
- cerebral protective effect (literature) [5]: have a cerebral protective activity

Source: patent publication US4962107A, “Agent for cerebral protection” (Kyowa Hakko Kogyo Kabushiki Kaisha, priority 1985, dated 1990)
